Some test systems named below: COLO 205 colon; SR leukemia; HCT-116 colon; OVCAR-8 ovarian; SK-MEL-5 melanoma; CAKI-1 renal; NCI-H522 lung; MDA-MB-435; PC-3 prostate; MCF7 breast.
What all share (experiment): DTP human tumour cell line panel, 48 h

“And” between values parts separate entries of the source, which are not always exact repeats. Equal entries are not always repeated.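 Growth conditions: 96-well plates. Treatment: test compound, 48 hours, 5 concentrations. Analysis: linear interpolation between bracketing concentrations; unreached endpoints set to highest concentration. GI50 marks 50% less growth. The concentration for full growth arrest is given as TGI.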

With `CC1(C)CCC(Sc2ccccc2)O1` (centres undefined), the concentration for total growth inhibition (TGI) with COLO 205 colon, with SR leukemia, with HCT-116 colon, with OVCAR-8 ovarian, with SK-MEL-5 melanoma and with CAKI-1 renal was > 100 µM each time.

As to `O=[N+]([O-])c1ccc(C2=Nc3ccccc3S(=O)C(c3ccccc3)C2)cc1` (centres undefined), the TGI with NCI-H522 lung was 35.3 µM; with COLO 205 colon, 40 µM; with OVCAR-8 ovarian it was > 100 µM; in the experiment with CAKI-1 renal it was 37.4 µM.

For `Cc1ccccc1N=Nc1c(O)ccc2ccccc12`, the TGI with MDA-MB-435, in the experiment on NCI-H522 lung, with COLO 205 colon, in the experiment with HCT-116 colon, with OVCAR-8 ovarian and in the experiment with PC-3 prostate was > 100 µM in each case. In addition, the TGI with SK-MEL-5 melanoma and in the experiment on CAKI-1 renal was > 100 µM in each case.

As to `CN(C)CCNC(=O)c1cccc2c1nc(-c1ccc(F)cc1)c1ccccc12`, the TGI came to 14.3 µM with COLO 205 colon; 13.4 µM in the experiment on HCT-116 colon; 18.2 µM in the experiment on OVCAR-8 ovarian; 11 µM in the experiment on SK-MEL-5 melanoma; 16.8 µM with CAKI-1 renal.

For `CC(C)(C)c1cc(CCC(=O)Nc2ccc(Cl)cc2)[nH]c(=S)n1`, the TGI in the experiment with NCI-H522 lung, in the experiment with COLO 205 colon, in the experiment with OVCAR-8 ovarian, in the experiment on SK-MEL-5 melanoma and in the experiment with CAKI-1 renal was > 100 µM in each case.

As for `COc1ccc(-c2cc(=O)c3c(O)c(OC)c(OC)c(OC)c3o2)cc1OC`, the TGI with NCI-H522 lung was 43.9 µM; in the experiment on MCF7 breast, > 100 µM; in the experiment on COLO 205 colon, > 100 µM; in the experiment on SR leukemia, > 100 µM; in the experiment on HCT-116 colon it was > 100 µM; in the experiment on OVCAR-8 ovarian, > 100 µM. The concentration for total growth inhibition (TGI) in the experiment on PC-3 prostate, in the experiment on SK-MEL-5 melanoma and in the experiment with CAKI-1 renal was > 100 µM each time.

With `Cc1ccc(NC(=O)CCCC(=O)CC(=O)c2ccc(Br)cc2)cc1`, the TGI with NCI-H522 lung, with COLO 205 colon, in the experiment on SR leukemia, in the experiment with HCT-116 colon, in the experiment with OVCAR-8 ovarian and with SK-MEL-5 melanoma was > 100 µM throughout. In addition, the TGI with CAKI-1 renal is > 100 µM.

In the case of `CC(=O)C1CCN(c2ccccc2)C1` (centres undefined), the TGI in the experiment with NCI-H522 lung, in the experiment on SR leukemia, in the experiment with HCT-116 colon, in the experiment with OVCAR-8 ovarian, in the experiment with SK-MEL-5 melanoma and in the experiment on CAKI-1 renal was > 100 µM each time.

Turning to `CCOC(=O)C(C)(NC(=O)c1ccc(NCc2ccc3nc(NC(=O)c4ccccc4)nc(NC(=O)c4ccccc4)c3c2)cc1)C(=O)OCC`, the TGI with NCI-H522 lung is 32.1 µM; in the experiment on COLO 205 colon it was > 100 µM; in the experiment on SR leukemia it was > 100 µM; with HCT-116 colon, 24 µM; in the experiment with OVCAR-8 ovarian, 17.8 µM; in the experiment on SK-MEL-5 melanoma, 22.7 µM. Further, in the experiment with CAKI-1 renal, the total growth inhibition concentration (TGI) is 21.9 µM.

Take `COC1C2C[C@@H](O)CCC2C(C(=O)OCCl)C[C@H]1O` (some centres undefined): the TGI with NCI-H522 lung, in the experiment on COLO 205 colon, in the experiment on SR leukemia, with HCT-116 colon, in the experiment on OVCAR-8 ovarian and with SK-MEL-5 melanoma was > 100 µM each time. The TGI in the experiment on CAKI-1 renal was > 100 µM.

As to `C=C1C(=O)O[C@H]2[C@H]1CC/C(COC(=O)c1cc(OC)c(OC)c(OC)c1)=C\CC[C@@]1(C)O[C@@H]21`, the GI50 in the experiment on MDA-MB-435 is 1.64 µM; with NCI-H522 lung it was 0.589 µM; in the experiment on COLO 205 colon it was 1.18 µM; in the experiment with SR leukemia, 0.342 µM; in the experiment on HCT-116 colon, 0.409 µM; with OVCAR-8 ovarian, 1.85 µM. Moreover, the GI50 in the experiment on PC-3 prostate is 1.8 µM; with SK-MEL-5 melanoma, 1.68 µM. Besides, the TGI in the experiment on MDA-MB-435 was 4.13 µM; in the experiment on NCI-H522 lung, 2.25 µM; in the experiment on COLO 205 colon, 3.09 µM; with SR leukemia it was 7.33 µM; in the experiment with HCT-116 colon, 1.48 µM; with OVCAR-8 ovarian it was 10.3 µM. Besides, the TGI in the experiment with PC-3 prostate was 4.49 µM; with SK-MEL-5 melanoma, 3.05 µM.

For `O=C(O/N=C1\CCCC\C1=C/c1ccccc1)c1ccc([N+](=O)[O-])cc1`, the TGI with NCI-H522 lung, in the experiment on COLO 205 colon, with SR leukemia, with HCT-116 colon, in the experiment on OVCAR-8 ovarian and with CAKI-1 renal was > 100 µM each time.

Take `Cn1c(CBr)nc2c1C(=O)c1nc(CBr)[nH]c(=O)c1C2=O`: the TGI with NCI-H522 lung, in the experiment with COLO 205 colon, with HCT-116 colon, with OVCAR-8 ovarian, in the experiment with SK-MEL-5 melanoma and with CAKI-1 renal was > 100 µM throughout.

`CCCNC(=O)Nc1c([N+](=O)[O-])cc(C(F)(F)F)cc1[N+](=O)[O-]`: the TGI is 97.5 µM with NCI-H522 lung; > 100 µM in the experiment with SR leukemia; > 100 µM in the experiment with HCT-116 colon; > 100 µM in the experiment on OVCAR-8 ovarian; > 100 µM with SK-MEL-5 melanoma; > 100 µM in the experiment with CAKI-1 renal.

For `CC(C)(CN1C(=O)C(Cl)=C(Cl)C1=O)CN1C(=O)C(Cl)=C(Cl)C1=O`, the TGI in the experiment with NCI-H522 lung is 4.91 µM; with COLO 205 colon, 8.66 µM; in the experiment with SR leukemia, 36 µM; in the experiment with HCT-116 colon, 27.9 µM; in the experiment with OVCAR-8 ovarian, 14.7 µM; in the experiment with SK-MEL-5 melanoma, 51.6 µM. The TGI in the experiment on CAKI-1 renal stood at 15.9 µM.

With `O=S1(=O)N2CN3CN(C2)CN1C3`, the TGI was 412 µM with NCI-H522 lung; > 31.6 µM and 73.8 µM with COLO 205 colon; 44.4 µM and 76.6 µM with HCT-116 colon; 110 µM in the experiment on OVCAR-8 ovarian; 124 µM with SK-MEL-5 melanoma; 571 µM in the experiment with CAKI-1 renal. Moreover, the GI50 in the experiment on HCT-116 colon was 26.6 µM; with OVCAR-8 ovarian, 30.8 µM.

As for `C[C@H]1CC[P+](Cc2ccccc2)(c2ccccc2)C1` (some centres undefined), the TGI was > 100 µM with NCI-H522 lung; > 100 µM in the experiment on COLO 205 colon; > 100 µM with SR leukemia; > 100 µM with HCT-116 colon; > 100 µM in the experiment on OVCAR-8 ovarian; 89.9 µM in the experiment with SK-MEL-5 melanoma.

As a reminder, the TGI is the concentration at which net growth stops. The GI50 is the concentration giving 50% growth inhibition.
